Results taken from patent US7414068B2, “Benzopyran derivatives substituted with secondary amines including tetrazole, method for the preparation thereof and pharmaceutical compositions containing them” (Dongbu Hannong Chemical Co., Ltd., priority 2002, dated 2008).

Experiments:
[1] = test system: isolated ischemic rat heart; assay: Cardioprotective effect in ischemic heart models of rats (Langendorff); settings: 10 μM
Summary of the method: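 Langendorff-perfused male rat hearts (Krebs-Henseleit, 85 mmHg, 37 °C) pretreated 10 min with compound or vehicle (0.04% DMSO), then 30 min global ischemia and 30 min reperfusion. Read-outs: LVDP, HR, CF, rate-pressure product, time to contracture (first 5 mmHg EDP rise), LDH release.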

isolated rat aorta = assay: Vasodilating effect on blood vessel excised from rats (methoxamine-constricted aorta); settings: isolated rat aorta constricted with methoxamine (3 μM); read-out: Concentration for inhibition of constriction induced by methoxamine in rat arota (IC50)
Summary of the method: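 Endothelium-denuded rat thoracic aortic rings (3 mm) in Krebs-Henseleit buffer, 37 °C, carbogen, 2 g resting tension, primed twice with 10^−5 M phenylephrine. After maximal contraction with 3×10^−6 M methoxamine, compounds added cumulatively at 1, 3, 10, 30 μM. IC50 = concentration giving 50% relaxation of maximal constriction, by linear regression.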

cortical neuron cells [2] = assay: Protective effect on hydrogen peroxide induced neuronal cell injury; format: cell-based; settings: hydrogen peroxide 30 μM
[3] = test system: HUVEC (Human Umbilical Vein Endothelial Cell); assay: Inhibitory effect against HUVEC tube formation; format: cell-based; design: key: −: no effect; +/−: slight effect; +: medium effect; ++: strong effect
Method: HUVEC (Human Umbilical Vein Endothelial Cell) were cultured, and tubulogenesis (tube formation) was induced in vascular endothelial cells by plating them onto the surface of Matrigel for several hours. The effect on tube formation of the test compounds were compared with the vehicle-treated control group, then confirmed their in-vitro anti-angiogenic effect indirectly.

cortical neuron cells [4] = assay: Protective effect on iron-induced neuronal cell injury (LDH release); format: cell-based; settings: FeSO4 50 μM; for protective effect on neuron cell: Inhibition (%, 30 μM compound addition): LDH reduction vs control; for IC50: LDH
Summary of the method: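 Embryonic (day 17–18) cortical neurons cultured 7–9 days, serum lowered to 0.2%, pretreated 30 min with compound (DMSO ≤0.1%), then exposed to 50 μM FeSO4 for 24 h. LDH released to medium measured; protection expressed as LDH reduction versus vehicle control.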

brain homogenate = assay: Inhibitory effect against lipid peroxidation by iron (MDA quantification); format: biochemical, rat; settings: 100 μM compound, FeCl2 400 μM, 37° C. 30 min
Method: The rat brain was homogenized in a Krebs buffer (15 mM HEPES, 10 mM glucose, 140 mM NaCl, 3.6 mM KCl, 1.5 mM CaCl2, 1.4 mM KH2PO4, 0.7 mM MgCl2, PH 7.4) and the supernatant separated by centrifugation at 12,000 rpm for 10 min was used for further experiments. FeCl2 was added for the final concentration to be 400 μM. Then the brain homogenate was allowed to stand at 37° C. for 30 min for the facilitation of oxidation. Each of the test compounds was added at a concentration of 100 μM. For control group, only vehicle was applied.
Iron facilitates the oxidation of the said brain homogenate to produce malondialdehyde (MDA), lipid peroxidation product. Thus, the lipid peroxidation was determined by MDA quantification. The inhibitory effect against lipid peroxidation of the test compounds was evaluated by calculating MDA reduction rate of the test compounds compared with that of the control group.
Typically, the MDA quantification is achieved by reacting samples with 2-thiobarbituric acid (TBA) and measuring the absorbance at 530 nm. However, this method is unsuitable to treat samples on a large scale because of a boiling step. Thus, in this experiment, N-methyl-2-phenylindole was used instead of TBA.

[5] = Acute oral toxicity test in rats; settings: SD, rat, in vivo, single oral dose, suspended in 0.5% methyl cellulose, read-out: lethal dose (LD50) for oral administration
Summary of the method: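 Six-week-old SPF SD rats, two per group, received compounds orally as suspensions in 0.5% methyl cellulose. Endpoints were clinical signs, body weight, mortality, haematology, serum biochemistry and macroscopic necropsy of organs and tissues.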

RAW 264.7 cells = assay: Inhibitory effect on NO production (LPS, Griess reagent); format: cell-based, murine; settings: Mus musculus, RAW264.7, 24 h, Addition 30 μM, LPS 1 μg/ml, read-out: Inihibition (%) of NO production
Method: Using RPMI1640 media supplemented with 10% fetal bovine serum (FBS), RAW 264.7 cells (obtained from American Type Culture Collection), a murine macrophage cell line, were cultured at 37° C. in a 5% CO2 incubator. The RAW 264.7 cells were harvested and cell density was adjusted to 5×10^5 cell/ml with a RPMI media supplemented with 0.5% FBS and plated at 5×10^4 cell/well to 96-well plate, which were then cultured for 20 hours in a CO2 incubator. After removal of the media, the cells were pre-treated for 1 hour with fresh media containing 30 μM. The test compounds were dissolved in DMSO and diluted to respective concentration in the media. In order to minimize DMSO effect on the nitric oxide formation by the RAW 264.7 cells in the walls, the media were allowed to contain DMSO at a concentration of 0.1% or less.
After completion of one-hour pre-treatment, Lipopolysaccharide (E. coli serotype 055:B5) was added to activate the cells at a final concentration of 1 μg/ml, which were maintained for 24 hours in a CO2 incubator. As a result of the activation of RAW 264.7 cells with LPS, NO was formed. The NO release into the media was in a form of nitrite (NO2^−) and quantitatively measured using the Griess reagent. A control group was treated only with vehicle instead of test compounds.
The inhibitory effect of the test compounds against NO production were determined as the reduction of NO quantity compared with that of the control group.

[6] = test system: Low density lipoprotein of human (human LDL); assay: Inhibitory effect against lipid peroxidation induced by copper (LDL oxidation, MDA); format: biochemical; settings: CuSO4 10 μM, 37° C. 18 hours
Method: Low density lipoprotein of human (human LDL, sigma) was dissolved in water to be final concentration of 1 mg/ml. To remove EDTA (ethylenediamine tetraacetate), the aqueous solution was dialyzed in phosphate buffer at 4° C. for 18 hours. At this dialysis, phosphate buffer was changed three times. Phosphate buffer was added to LDL (100 μg LDL protein/ml) which EDTA was removed from the aqueous solution, additionally thereto CuSO4 10 μM as oxidant was added. […] Group to which CUSO4 was not added was used as blank group. Group to which CUSO4 and vehicle were added in place of test compounds was used as control group. The mixture was incubated at 37° C. for 18 hours. EDTA […] was added to the mixture to terminate the oxidation reaction.
As shown in example 4, Cu^2+ facilitates the oxidation reaction to produce malondialdehyde (MDA), lipid peroxidation product. The MDA quantification is achieved by reacting samples with 2-thiobarbituric acid (TBA) and measuring the absorbance at 530 nm. Also, 1,1,3,3-tetramethoxypropane purchased from sigma was used as standard materials. Inhibitory effect against lipid peroxidation of the test compounds was measured by MDA (nmol) to protein (mg). Decrease of MDA to that of control group was calculated.

[7] = test system: A7r5 (Rat thoracic aorta smooth muscle cell line, ATCC); assay: Inhibitory effect on accumulation of reactive oxygen species induced by hydrogen peroxide (DCF fluorescence); format: cell-based; settings: hydrogen peroxide 50 μM
Method: To measure reactive oxygen species, H2DCFDA (2′,7′-dichlorodihydrofluorescein diacetate, Molecular Probes, Eugene, Oreg., USA) was used. If H2DCFDA, nonpolar material is transferred through cell membrane, it is changed to H2DCF (2′,7′-dichlorodihydrofluorescein), material impermeable to membrane by intracellular esterase. H2DCF is changed to high fluorescent DCF (2′,7′-dichlorofluorescein) by low fluorescent peroxidated oxygen or hydroxyl radical. H2DCFDA solution (10 mM) dissolved in DMSO was used before the experiment. A7r5 (Rat thoracic aorta smooth muscle cell line, ATCC), as smooth muscle cell was incubated in DMEM (Dulbecco's Modified Eagle's Medium) containing 10% of FBS (fetal bovine serum). Thereafter, the cell was incubated in 48 well plate for two days, then was incubated in serum-free DMEM for 24 hours to use for experiment. Krebs-linger buffer (Krebs-Ringer (K-R), 99.01 mM NaCl, 4.69 mM KCl, 1.87 mM CaCl2, 1.2 mM MgSO4, 1.03 mM K2HPO4, 25 mM NaHCO3, 20 mM Hepes, 11.1 mM D-glucose, pH 7.4) was used for washing and process of cell monolayers. After cell monolayers media was removed, each of test compounds (0.2 ml) was pre-treated to media, then incubated at 37° C. for 15 min. Final concentration was 50 μM, hydrogen peroxide was added. The media was allowed to stand for 30 min. The said solution from media was removed. The media was washed one time. H2DCFDA 20 μM was added to the media. The media was allowed to stand for 30 min. the media was washed two times. Thereafter, oxidation of H2DCFDA was measured by Fluorescence reader (FL600, Biotech Instruments, 485 nm excitation, 530 nm emission).

CC1(C)Oc2ccc(C#N)cc2[C@@H](NC(=NC#N)Nc2ccc(Cl)cc2)[C@@H]1O [BMS-180448, reference compound]
EDP (mmHg) ([1]; after 30 min global ischemia and reperfusion): 16.5 mmHg
LDH (u/g) ([1]; reperfusion LDH release): 17.2 u/g
LVDP X HR (%) ([1]; reperfusion, % of pre-treatment DP): 67.6%
TTC ([1]; time to contracture during global ischemia): 27.8 min
IC50 (isolated rat aorta): 1.38 µM
Inhibition(%) of hydrogen peroxide induced neuronal cell injury (cortical neuron cells [2]; Addition 30 μM): −5%

COC(OC)[C@@]1(C)Oc2ccc([N+](=O)[O-])cc2[C@H](N(Cc2nnn(C)n2)c2ccc(Cl)cc2)[C@H]1O [Example 2, (2S,3R,4S)-6-nitro-4-[N-(4-chlorophenyl)-N-(2-methyl-2H-tetrazol-5-ylmethyl)amino]-3-hydroxy-2-methyl-2-dimethoxymethyl-3,4-dihydro-2H-1-benzopyran]
Tube formation (inhibitory effect) ([3]; 10 μM): +
Tube formation (inhibitory effect) ([3]; 100 μM): ++

COC(OC)[C@@]1(C)Oc2ccc(N)cc2[C@H](N(Cc2nnn(C)n2)c2ccc(C)cc2)[C@H]1O [Example 28, (2S,3R,4S)-6-amino-4-[N-(4-methylphenyl)-N-(2-methyl-2H-tetrazol-5-ylmethyl)amino]-3-hydroxy-2-methyl-2-dimethoxymethyl-3,4-dihydro-2H-1-benzopyran]
protective effect on neuron cell: Inhibition (%, 30 μM compound addition) (cortical neuron cells [4]; 24 hours): 103%
IC50 (cortical neuron cells [4]; Cortical neurone, 24 h): 4.1 µM
IC50 (isolated rat aorta): > 30 µM
inhibitory effect against lipid peroxidation induced by iron (%, 100 μM) (brain homogenate): 83%
LD50 [5]: > 2000 mg/kg
Tube formation (inhibitory effect) ([3]; 10 μM): +/−
Tube formation (inhibitory effect) ([3]; 100 μM): +

COC(OC)[C@@]1(C)Oc2ccc([N+](=O)[O-])cc2[C@H](N(Cc2nnn(C)n2)c2ccccc2O)[C@H]1O [Example 60, (2S,3R,4S)-6-nitro-4-[N-(2-hydroxyphenyl)-N-(2-methyl-2H-tetrazol-5-ylmethyl)amino]-3-hydroxy-2-methyl-2-dimethoxymethyl-3,4-dihydro-2H-1-benzopyran]
protective effect on neuron cell: Inhibition (%, 30 μM compound addition) (cortical neuron cells [4]; 24 hours): 87%
IC50 (cortical neuron cells [4]; Cortical neurone, 24 h): < 1 µM
IC50 (cortical neuron cells [4]; 24 hours): 0.7 µM
inhibitory effect against lipid peroxidation induced by iron (%, 100 μM) (brain homogenate): 85%
LD50 [5]: > 2000 mg/kg
inhibition at 30 µM (RAW 264.7 cells): > 75%

CC(C)(Sc1cc(C(C)(C)C)c(O)c(C(C)(C)C)c1)Sc1cc(C(C)(C)C)c(O)c(C(C)(C)C)c1 [Probucol]
Inhibitory effect(%) against lipid peroxidation induced by copper ([6]; Addition 10^−5 M): 66.7%
Inhibitory effect(%) against lipid peroxidation induced by copper ([6]; Addition 10^−6 M): 58.7%
Inhibitory effect(%) against lipid peroxidation induced by copper ([6]; Addition 10^−7 M): 33.7%

CC(CN1c2ccccc2Sc2ccccc21)N(C)C (stereo not shown) [Promethazine]
Inhibition(%) of hydrogen peroxide induced neuronal cell injury (cortical neuron cells [2]; Addition 5 μM): 97%

CCCOC(=O)c1cc(O)c(O)c(O)c1 [Propyl gallate, reference compound]
Inhibitory(%) against reactive oxygen species accumulation ([7]; addition 3 μM): 57%
Inhibitory(%) against reactive oxygen species accumulation ([7]; addition 10 μM): 94%
Inhibitory(%) against reactive oxygen species accumulation ([7]; addition 30 μM): 108%
Inhibition(%) of hydrogen peroxide induced neuronal cell injury (cortical neuron cells [2]; Addition 10 μM): 94%

tocopherol
Inhibitory effect(%) against lipid peroxidation induced by copper ([6]; Addition 10^−5 M): 29.7%
Inhibitory effect(%) against lipid peroxidation induced by copper ([6]; Addition 10^−7 M): 21.3%
